From ChEMBL document CHEMBL5505979, “Novel aminothiazoximone-corbelled ethoxycarbonylpyrimidones with antibiofilm activity to conquer Gram-negative bacteria through potential multitargeting effects” (Eur J Med Chem, 2024)
Values after ≈ are worked out from the molar mass of the structure shown.

What was measured:
Type in all cases: functional
[1] = system: Escherichia coli; assay: Anti-bacterial activity against Escherichia coli JM109 assessed as inhibition of bacterial growth
[2] = system: Staphylococcus aureus; assay: Anti-bacterial activity against Staphylococcus aureus ATCC 25923 assessed as inhibition of bacterial growth; details: Staphylococcus aureus, ATCC 25923; read-out: MIC
[3] = system: Klebsiella pneumoniae; assay: Anti-bacterial activity against Klebsiella pneumoniae KPN325 assessed as inhibition of bacterial growth; details: Klebsiella pneumoniae, KPN325; read-out: MIC
[4] = system: Staphylococcus aureus; assay: Anti-bacterial activity against Staphylococcus aureus ATCC 29213 assessed as inhibition of bacterial growth; details: Staphylococcus aureus, ATCC 29213; read-out: MIC
[5] = system: Pseudomonas aeruginosa; assay: Anti-bacterial activity against Pseudomonas aeruginosa ATCC 27853 assessed as inhibition of bacterial growth; details: Pseudomonas aeruginosa, ATCC 27853; read-out: MIC
[6] = system: Staphylococcus aureus; assay: Anti-bacterial activity against Staphylococcus aureus CMCC (B) 26003 assessed as inhibition of bacterial growth
[7] = system: Staphylococcus aureus; assay: Anti-bacterial activity against Staphylococcus aureus ATCC 12600 assessed as inhibition of bacterial growth; details: Staphylococcus aureus, ATCC 12600; read-out: MIC
[8] = system: Pseudomonas aeruginosa; assay: Anti-bacterial activity against Pseudomonas aeruginosa ATCC 9027 assessed as inhibition of bacterial growth
[9] = system: Escherichia coli; assay: Anti-bacterial activity against Escherichia coli ATCC 25922 assessed as inhibition of bacterial growth
[10] = system: Candida albicans; assay: Anti-fungal activity against Candida albicans 90023 assessed as inhibition of fungal growth
[11] = system: Candida albicans; assay: Anti-fungal activity against Candida albicans assessed as inhibition of fungal growth; details: Candida albicans; read-out: MIC
[12] = system: Candida parapsilosis; assay: Anti-fungal activity against Candida parapsilosis assessed as inhibition of fungal growth; details: Lodderomyces parapsilosis; read-out: MIC
[13] = system: Enterococcus faecalis; assay: Anti-bacterial activity against Enterococcus faecalis V583 assessed as inhibition of bacterial growth
[14] = system: Staphylococcus aureus; assay: Anti-bacterial activity against Staphylococcus aureus CMCC (B) 26001 assessed as inhibition of bacterial growth
[15] = system: Staphylococcus aureus; assay: Anti-bacterial activity against Staphylococcus aureus ATCC 1708 assessed as inhibition of bacterial growth; details: Staphylococcus aureus, ATCC 1708; read-out: MIC
[16] = system: Pseudomonas aeruginosa; assay: Anti-bacterial activity against Pseudomonas aeruginosa ST235 assessed as inhibition of bacterial growth; details: Pseudomonas aeruginosa, ST235; read-out: MIC
[17] = system: Pseudomonas aeruginosa; assay: Anti-bacterial activity against Pseudomonas aeruginosa ATCC 15442 assessed as inhibition of bacterial growth; details: Pseudomonas aeruginosa, ATCC 15442; read-out: MIC
[18] = system: Staphylococcus aureus; assay: Anti-bacterial activity against methicillin-resistant Staphylococcus aureus ATCC 43300 assessed as inhibition of bacterial growth; details: Staphylococcus aureus, ATCC 43300; read-out: MIC
[19] = system: Candida tropicalis; assay: Anti-fungal activity against Candida tropicalis assessed as inhibition of fungal growth; details: Candida tropicalis; read-out: MIC
[20] = system: Staphylococcus aureus; assay: Anti-bacterial activity against Staphylococcus aureus ATCC 6538 assessed as inhibition of bacterial growth
[21] = system: Staphylococcus aureus; assay: Anti-bacterial activity against methicillin-resistant Staphylococcus aureus N315 assessed as inhibition of bacterial growth; details: Staphylococcus aureus, N315; read-out: MIC
[22] = system: Pseudomonas aeruginosa; assay: Anti-bacterial activity against Pseudomonas aeruginosa CMCC (B) 10104 assessed as inhibition of bacterial growth; details: Pseudomonas aeruginosa, CMCC (B) 10104; read-out: MIC
[23] = system: Acinetobacter baumannii; assay: Anti-bacterial activity against Acinetobacter baumannii R674 assessed as inhibition of bacterial growth

For `CCOC(=O)C1=C(CN2CCN(C(=O)/C(=N/OC)c3csc(N)n3)CC2)NC(=O)NC1c1ccc(Cl)cc1Cl` (centres undefined), the MIC [1] was 108 µM (≈ 64.4 µg/mL), the MIC [2] was 54 µM (≈ 32.2 µg/mL) and the MIC [3] was 108 µM (≈ 64.4 µg/mL). For the same compound, the MIC [4] was 108 µM (≈ 64.4 µg/mL), the MIC [5] was 54 µM (≈ 32.2 µg/mL) and the MIC [6] was 108 µM (≈ 64.4 µg/mL). For the same compound, the MIC [7] was 54 µM (≈ 32.2 µg/mL), the MIC [8] was 108 µM (≈ 64.4 µg/mL) and the MIC [9] was 54 µM (≈ 32.2 µg/mL). It also gave an MIC [10] of 449 µM (≈ 268 µg/mL), an MIC [11] of 449 µM (≈ 268 µg/mL) and an MIC [12] of 449 µM (≈ 268 µg/mL). The MIC [13] was 27 µM (≈ 16.1 µg/mL), the MIC [14] was 54 µM (≈ 32.2 µg/mL) and the MIC [15] was 54 µM (≈ 32.2 µg/mL). The MIC [16] was 54 µM (≈ 32.2 µg/mL), the MIC [17] was 54 µM (≈ 32.2 µg/mL) and the MIC [18] was 27 µM (≈ 16.1 µg/mL). It also gave an MIC [19] of 449 µM (≈ 268 µg/mL), an MIC [20] of 54 µM (≈ 32.2 µg/mL) and an MIC [21] of 108 µM (≈ 64.4 µg/mL). For the same compound, the MIC [22] was 54 µM (≈ 32.2 µg/mL) and the MIC [23] was 27 µM (≈ 16.1 µg/mL).

`CCCCc1nc(Cl)c(C2NC(=O)NC(CN3CCN(CC(=O)c4ccc(F)cc4)CC3)=C2C(=O)OCC)[nH]1` (centres undefined) gave an MIC [1] of 114 µM (≈ 64 µg/mL), an MIC [2] of 57 µM (≈ 32 µg/mL) and an MIC [3] of 229 µM (≈ 128 µg/mL). The MIC [4] was 57 µM (≈ 32 µg/mL), the MIC [5] was 57 µM (≈ 32 µg/mL) and the MIC [6] was 114 µM (≈ 64 µg/mL). For the same compound, the MIC [7] was 57 µM (≈ 32 µg/mL), the MIC [8] was 114 µM (≈ 64 µg/mL) and the MIC [9] was 114 µM (≈ 64 µg/mL). The MIC [10] was 29 µM (≈ 16.3 µg/mL), the MIC [11] was 457 µM (≈ 256 µg/mL) and the MIC [12] was 457 µM (≈ 256 µg/mL). It also gave an MIC [13] of 57 µM (≈ 32 µg/mL), an MIC [14] of 57 µM (≈ 32 µg/mL) and an MIC [15] of 114 µM (≈ 64 µg/mL). It also gave an MIC [16] of 57 µM (≈ 32 µg/mL), an MIC [17] of 114 µM (≈ 64 µg/mL) and an MIC [18] of 114 µM (≈ 64 µg/mL). For the same compound, the MIC [19] was 457 µM (≈ 256 µg/mL), the MIC [20] was 229 µM (≈ 128 µg/mL) and the MIC [21] was 229 µM (≈ 128 µg/mL). It also gave an MIC [22] of 114 µM (≈ 64 µg/mL) and an MIC [23] of 114 µM (≈ 64 µg/mL).

For `CCOC(=O)C1=C(CN2CCN(C(=O)/C(=N/OC)c3csc(N)n3)CC2)NC(=O)NC1c1cccs1` (centres undefined), the MIC [1] was 240 µM (≈ 128 µg/mL), the MIC [2] was 240 µM (≈ 128 µg/mL) and the MIC [3] was 240 µM (≈ 128 µg/mL). The MIC [4] was 240 µM (≈ 128 µg/mL), the MIC [5] was 240 µM (≈ 128 µg/mL) and the MIC [6] was 240 µM (≈ 128 µg/mL). For the same compound, the MIC [7] was 240 µM (≈ 128 µg/mL), the MIC [8] was 480 µM (≈ 256 µg/mL) and the MIC [9] was 240 µM (≈ 128 µg/mL). For the same compound, the MIC [10] was 480 µM (≈ 256 µg/mL), the MIC [11] was 480 µM (≈ 256 µg/mL) and the MIC [12] was 480 µM (≈ 256 µg/mL). It also gave an MIC [13] of 120 µM (≈ 64 µg/mL), an MIC [14] of 240 µM (≈ 128 µg/mL) and an MIC [15] of 240 µM (≈ 128 µg/mL). The MIC [16] was 480 µM (≈ 256 µg/mL), the MIC [17] was 60 µM (≈ 32 µg/mL) and the MIC [18] was 30 µM (≈ 16 µg/mL). The MIC [19] was 480 µM (≈ 256 µg/mL), the MIC [20] was 60 µM (≈ 32 µg/mL) and the MIC [21] was 30 µM (≈ 16 µg/mL). It also gave an MIC [22] of 240 µM (≈ 128 µg/mL) and an MIC [23] of 480 µM (≈ 256 µg/mL).
